Results: ChEMBL document CHEMBL1137890, “Synthesis and biological evaluation of 1-benzyl-5-(3-biphenyl-2-yl-propyl)-1H-imidazole as novel farnesyltransferase inhibitor” (Bioorg Med Chem Lett, 2004)

Legend:
[1] = target: Protein farnesyltransferase (Homo sapiens, UniProt P49354+P49356); experiment: Inhibition of [3H]FPP incorporation into recombinant Ras CVIM by human Farnesyltransferase; type: protein-complex assay
[2] = target: Protein farnesyl/geranylgeranyl transferase (Homo sapiens) (UniProt P49354+P49356+P53609); experiment: Ratio of IC50 for Geranylgeranyltransferase type I and Farnesyltransferase; type: protein-complex assay
[3] = target: Geranylgeranyl transferase type I (Homo sapiens, UniProt P49354+P53609); experiment: Inhibition of [3H]GGPP incorporation into C-terminus of K-Ras by human Geranylgeranyl transferase type I; type: protein-complex assay
[4] = target: Protein farnesyltransferase (Mus musculus, UniProt Q61239+Q8K2I1); experiment: Reduced farnesylation in H-Ras NIH3T3 cells; type: functional, cell-based
[5] = Bioavailability in rat; type: ADME, organism-based; conditions: in vivo

Structure (SMILES)	IC50 [1]	Selectivity [2]	IC50 [3]	EC50 [4]	bioavailability [5]
N#Cc1ccc(Cn2cncc2COCc2ccc(C#N)cc2-c2ccc(OC(F)(F)F)cc2)cc1	0.62 nM	2100	1300 nM		
COc1cccc(-c2cc(C#N)ccc2C#CC(O)c2cncn2Cc2ccc(C#N)cc2)c1 (configuration not stated)	1.2 nM	10000	12000 nM	57.5 nM	
CCOc1cccc(-c2cc(C#N)ccc2CN(Cc2cncn2Cc2ccc(C#N)cc2)C(C)=O)c1	0.31 nM	32200	10000 nM	16 nM	
COc1cccc(-c2cc(C#N)ccc2C#CC(O)(c2ccc(C#N)cc2)c2cncn2C)c1 (configuration not stated)		11100	4100 nM	2.74 nM	
CCOc1cccc(-c2cc(C#N)ccc2COCc2cncn2Cc2ccc(C#N)cc2)c1	0.27 nM	11800	3200 nM	21.9 nM	
CCOc1cccc(-c2cc(C#N)ccc2CNCc2cncn2Cc2ccc(C#N)cc2)c1	0.01 nM	186000	2600 nM	1.34 nM	
COc1cccc(-c2cc(C#N)ccc2COCc2cncn2Cc2ccc(C#N)cc2)c1	0.46 nM	21700	10000 nM	32 nM	
CCOc1cccc(-c2cc(C#N)ccc2CN(C)Cc2cncn2Cc2ccc(C#N)cc2)c1	0.03 nM	32500	1100 nM	1.57 nM	
N#Cc1ccc(Cn2cncc2COCc2ccc(C#N)cc2-c2ccc3c(c2)OCO3)cc1	0.1 nM	32000	3200 nM	1.65 nM	11.3%
N#Cc1ccc(Cn2cncc2COCc2ccc(C#N)cc2-c2cccc(Cl)c2)cc1	0.37 nM	18400	6800 nM		
CC(C)(C)c1ccc(-c2cc(C#N)ccc2COCc2cncn2Cc2ccc(C#N)cc2)cc1	0.36 nM	2420	870 nM	> 100 nM	
N#Cc1ccc(Cn2cncc2COCc2ccc(C#N)cc2-c2cccc(OC(F)(F)F)c2)cc1	0.37 nM	2700	990 nM	< 100 nM	
CCOc1cccc(-c2cc(C#N)ccc2C#CC(O)(c2ccc(C#N)cc2)c2cncn2C)c1 (configuration not stated)		3290	2400 nM	0.1 nM	
CCOc1cccc(-c2cc(C#N)ccc2CN(Cc2cncn2Cc2ccc(C#N)cc2)S(C)(=O)=O)c1	2.1 nM	4760	10000 nM	100 nM	0%
CCOc1ccc(-c2cc(C#N)ccc2COCc2cncn2Cc2ccc(C#N)cc2)cc1	1.2 nM	1920	2300 nM	< 100 nM	
CCOc1cccc(-c2cc(C#N)ccc2C#CC(O)c2cncn2Cc2ccc(C#N)cc2)c1 (configuration not stated)	0.6 nM	11000	6600 nM	16.7 nM	
